Patent US20260083865A1, “PROSTATE SPECIFIC MEMBRANE ANTIGEN (PSMA) LIGANDS AND USE THEREOF” (priority 2022, published 2026)
Like-named read-outs stand apart in the source and are kept apart here. Bridge positions count the residues as written; N and C are the ends. Square brackets hold non-standard residues; d marks the D form. Peptide text beside a SMILES is read from it. * marks the point of attachment. ξ: configuration not given here. X19 = NC(=O)[C@H](CCCCNC(=O)CCCC[C@@H]1SC[C@@H]2NC(=O)N[C@@H]21)NC(=O)CCC(=O)NCCCOCCOCCOCCCNC(=O)CCC(=O)NCCCOCCOCCOCCCNC(=O)CCC(=O)NCCCOCCOCCOCCCN*; Phe(4-Cl) = N[C@@H](Cc1ccc(Cl)cc1)C(=O)O; Cit = NC(=O)NCCC[C@H](N)C(=O)O; Tle = CC(C)(C)[C@H](N)C(=O)O; Aib = CC(C)(N)C(=O)O; ξM = CSCCC(N)C(=O)O

Assays:
[1] = molecular target: T1, PSMA-expressing C4-2 cells (Homo sapiens, UniProt Q04609); experiment: FACS binding assay (competition with 50 nM PSM-0183); conditions: C4-2 cells, read-out: pIC50 [C4-2] CAT (converted)
T1 construct: PSMA-expressing C4-2 cells (ATCC, Cat. No. CRL-3314) were cultured in RPMI-1640; host or cells: C4-2 cells
T1 sequence (Q04609 whole entry): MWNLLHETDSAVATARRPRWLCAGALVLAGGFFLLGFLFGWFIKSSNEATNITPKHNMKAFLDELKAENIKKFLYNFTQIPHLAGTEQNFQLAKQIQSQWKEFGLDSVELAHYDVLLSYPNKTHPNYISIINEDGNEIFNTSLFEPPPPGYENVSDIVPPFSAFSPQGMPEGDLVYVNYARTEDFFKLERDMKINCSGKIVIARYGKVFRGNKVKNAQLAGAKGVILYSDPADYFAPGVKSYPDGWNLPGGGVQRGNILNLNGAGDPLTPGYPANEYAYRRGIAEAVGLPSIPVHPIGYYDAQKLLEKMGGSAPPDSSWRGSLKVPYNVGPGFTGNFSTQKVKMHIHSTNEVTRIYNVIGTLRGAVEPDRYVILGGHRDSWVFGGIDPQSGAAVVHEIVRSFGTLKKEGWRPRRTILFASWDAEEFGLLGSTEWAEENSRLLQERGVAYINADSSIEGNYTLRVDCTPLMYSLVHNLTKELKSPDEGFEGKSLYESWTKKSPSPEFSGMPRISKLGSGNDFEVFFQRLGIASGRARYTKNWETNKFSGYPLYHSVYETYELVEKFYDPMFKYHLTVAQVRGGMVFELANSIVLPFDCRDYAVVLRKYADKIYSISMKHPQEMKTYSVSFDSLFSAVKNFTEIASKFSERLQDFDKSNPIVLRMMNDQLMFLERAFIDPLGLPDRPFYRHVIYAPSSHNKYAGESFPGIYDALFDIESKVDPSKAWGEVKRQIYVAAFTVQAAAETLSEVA
Description: In order to determine binding of compounds according to the present invention to PSMA-expressing cells, a FACS binding assay was established.
PSMA-expressing C4-2 cells (ATCC, Cat. No. CRL-3314) were cultured in RPMI-1640 (Pan Biotech, Cat. No. P04-18050) including 10% fetal calf serum (Biochrom) and 100 U/ml penicillin and 100 μg/mL streptomycin (Sigma, Cat. No. P0781). Cells were detached with Accutase (Biolegend, Cat. No. BLD-423201) and washed in FACS buffer (PBS (Sigma, Cat. No. D8537) including 1% fetal calf serum). Cells were diluted in FACS buffer to a final concentration of 500,000 cells per mL. 200 μL of the cell suspension were transferred to a u-shaped non-binding 96-well plate (Greiner Bio-One, Cat. No. 650901) and cells were washed in ice-cold FACS buffer.
For IC50 determination, C4-2 cells were incubated with 50 nM PSM-0183 (Ac-Thr-Aib-Phe[Cys-Lys-Arg-Aib-Asn-Cys]-Tle-Thr-Asp-Ttds-Ttds-AF488N3K-NH2) in the presence of increasing concentrations of test compounds at 4° C. for 1 hour. After two wash steps with ice-cold FACS buffer, cells were analyzed in an Attune NxT flow cytometer. Median fluorescence intensities (MFI) of the FITC/AF488-channel were calculated by Attune NxT software. MFI values were plotted against peptide concentration and four parameter logistic (4PL) curve fitting and IC50/pIC50 calculations were performed using ActivityBase software (IDBS).

[2] = molecular target: T2, Fc-fusion protein of human PSMA (hPSMA-Fc) (Homo sapiens, UniProt Q04609); experiment: Surface plasmon resonance assay (Biacore T200, single cycle kinetic); format: binding; conditions: hPSMA-Fc, 25° C., read-out: pKD CAT (converted)
T2 construct: purchased Acro Biosystems PSA-H5264
T2 sequence (Q04609 44-750 limits assumed): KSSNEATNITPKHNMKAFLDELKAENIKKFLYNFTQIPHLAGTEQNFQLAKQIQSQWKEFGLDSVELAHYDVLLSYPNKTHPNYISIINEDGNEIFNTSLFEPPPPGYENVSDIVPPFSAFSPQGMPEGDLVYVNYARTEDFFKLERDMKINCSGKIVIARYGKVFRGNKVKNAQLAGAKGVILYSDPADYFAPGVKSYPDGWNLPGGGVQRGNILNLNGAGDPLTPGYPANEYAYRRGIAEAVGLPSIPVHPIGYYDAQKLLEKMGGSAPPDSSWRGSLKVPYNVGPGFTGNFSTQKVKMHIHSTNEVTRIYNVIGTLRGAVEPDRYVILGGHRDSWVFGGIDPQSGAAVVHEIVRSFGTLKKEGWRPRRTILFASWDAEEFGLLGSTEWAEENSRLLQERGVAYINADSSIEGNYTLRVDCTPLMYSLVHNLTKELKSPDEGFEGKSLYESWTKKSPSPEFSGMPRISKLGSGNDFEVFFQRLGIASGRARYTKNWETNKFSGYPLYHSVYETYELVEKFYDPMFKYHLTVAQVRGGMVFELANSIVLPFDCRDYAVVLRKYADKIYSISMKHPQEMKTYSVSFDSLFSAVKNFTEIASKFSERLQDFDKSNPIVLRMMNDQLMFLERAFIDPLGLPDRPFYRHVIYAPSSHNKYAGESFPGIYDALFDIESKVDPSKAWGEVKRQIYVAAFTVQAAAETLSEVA
Description: Surface plasmon resonance (SPR) studies were performed using a Biacore™ T200 SPR system. Briefly, polarized light is directed towards a gold-labeled sensor surface, and minimum intensity reflected light is detected. The angle of reflected light changes as molecules bind and dissociate.
Fc-fusion protein of human PSMA (hPSMA-Fc, Acro Biosystems, Cat #PSA-H5264) was captured on a Fc-capture chip (Biacore™ CM5 sensor chip coated with ˜300 RU of an Fc-binding peptide). hPSMA-Fc was diluted in Running Buffer (HBST, 0.1% DMSO) to a final concentration of 100 nM and then flushed over the Fc-capture chip to immobilized ˜1000 RUs.
Stock solutions of test compounds were prepared by dissolving each compound in DMSO. DMSO stock solution were diluted 1:1000 in Running Buffer without DMSO. Further sequential dilutions were made with Running Buffer containing 0.1% DMSO. SPR binding analyses were performed in Single Cycle Kinetic (SCK) mode at 25° C. Flow cell coated with the Fc-binding peptide only served as reference flowcell. After each SCK run, hPSMA-Fc was removed with 10 mM glycine buffer, pH 1.5.
In between every three SCK measurements, a blank run with Running Buffer instead of test compound was included to correct for baseline drifts (double blanking method).
Table 5 describes the protocol steps for Fc-fusion target capturing and assessment of the binding kinetics.
For each test compound, SPR raw data in the form of resonance units (RU) were plotted as sensorgrams using the Biacore™ T200 control software. The signal from the blank sensorgram was subtracted from that of the test compound sensorgram (blank corrected). The blank corrected sensorgram was corrected for baseline drift by subtracting the sensorgram of a SCK run without the test compound (running buffer only). The dissociation constant (KD) was calculated from Blank-normalized SPR data using the 1:1 Langmuir binding model from the Biacore™ Insight Evaluation software. The pKD value (negative decadic logarithm of dissociation constant) was calculated using Microsoft Excel.

[3] = FACS binding, competition with 50 nM PSM-0183, category
[4] = SPR, single cycle kinetic, category

CCCC[C@H](NC(=O)[C@@H]1CSSC[C@H](NC(=O)[C@H](Cc2ccccc2)NC(=O)[C@H](C)NC(=O)[C@@H](NC(C)=O)[C@@H](C)O)C(=O)N[C@@H](CCCCN)C(=O)N[C@@H](CCCNC(=N)N)C(=O)N[C@@H](C)C(=O)N[C@@H](CC(N)=O)C(=O)N1)C(=O)N[C@H](C(=O)N[C@H](CC(=O)O)C(N)=O)[C@@H](C)O (single isomer, unassigned) [PSM-0436, Ac-Thr-Ala-phe-[Cys-Lys-Arg-Ala-Asn-Cys]-Nle-Thr-Asp-NH2]
IC50 ([1]; pIC50 category of FACS binding): > 3160 nM | Kd ([2]; pKD category for PSMA SPR activity assay): > 501 nM

CC(=O)N[C@H](C(=O)NC(C)(C)C(=O)N[C@@H](Cc1ccccc1)C(=O)N[C@H]1CSSC[C@@H](C(=O)N[C@H](C(=O)N[C@H](C(N)=O)[C@@H](C)O)C(C)(C)C)NC(=O)[C@H](CC(N)=O)NC(=O)C(C)(C)NC(=O)[C@H](CCCNC(=N)N)NC(=O)[C@H](CCCCN)NC1=O)[C@@H](C)O [PSM-0178, Ac-Thr-Aib-Phe-[Cys-Lys-Arg-Aib-Asn-Cys]-Tle-Thr-NH2] (Ac-T[Aib]FCKR[Aib]NC[Tle]T-NH2; disulfide 4-9)
IC50 [1, 3]: < 200 nM | Kd [2, 4]: < 12.6 nM

CC(=O)N[C@H](C(=O)NC(C)(C)C(=O)N[C@@H](Cc1ccc(Cl)cc1)C(=O)N[C@H]1CSSC[C@@H](C(=O)N[C@H](C(=O)N[C@H](C(N)=O)[C@@H](C)O)C(C)(C)C)NC(=O)[C@H](CC(N)=O)NC(=O)C(C)(C)NC(=O)[C@H](CCCNC(N)=O)NC(=O)[C@H](CCCCN)NC1=O)[C@@H](C)O [PSM-0179, Ac-Thr-Aib-Pcf-[Cys-Lys-Cit-Aib-Asn-Cys]-Tle-Thr-NH2] (Ac-T[Aib][Phe(4-Cl)]CK[Cit][Aib]NC[Tle]T-NH2; disulfide 4-9)
IC50 [1, 3]: < 200 nM | Kd [2, 4]: < 12.6 nM

CC(=O)N[C@H](C(=O)NC(C)(C)C(=O)N[C@@H](Cc1ccccc1)C(=O)N[C@H]1CSSC[C@@H](C(=O)N[C@H](C(=O)N[C@H](C(=O)N[C@@H](CC(=O)O)C(=O)NCCCOCCOCCOCCCNC(=O)CCC(=O)NCCCOCCOCCOCCCNC(=O)CCC(=O)N[C@H](CCCCn2nnc3c2-c2ccccc2CN(C(=O)CCNC(=O)c2ccc(-c4c5ccc(=N)c(S(=O)(=O)O)c-5oc5c(S(=O)(=O)O)c(N)ccc45)c(C(=O)O)c2)c2ccccc2-3)C(N)=O)[C@@H](C)O)C(C)(C)C)NC(=O)[C@H](CC(N)=O)NC(=O)C(C)(C)NC(=O)[C@H](CCCNC(=N)N)NC(=O)[C@H](CCCCN)NC1=O)[C@@H](C)O [PSM-0183, Ac-Thr-Aib-Phe-[Cys-Lys-Arg-Aib-Asn-Cys]-Tle-Thr-Asp-Ttds-Ttds-AF488N3K-NH2]
Kd [2, 4]: < 12.6 nM

CSCCC(N)C(=O)N[C@H](C(=O)N[C@@H](C)C(=O)N[C@@H](Cc1ccccc1)C(=O)N[C@H]1CSSC[C@@H](C(=O)N[C@@H](CC(C)C)C(=O)N[C@H](C(=O)N[C@@H](CC(=O)O)C(=O)NCC(=O)N[C@@H](CO)C(=O)NCCCOCCOCCOCCCNC(=O)CCC(=O)NCCCOCCOCCOCCCNC(=O)CCC(=O)NCCCOCCOCCOCCCNC(=O)CCC(=O)N[C@@H](CCCCNC(=O)CCCC[C@@H]2SC[C@@H]3NC(=O)N[C@@H]32)C(N)=O)[C@@H](C)O)NC(=O)[C@H](CC(N)=O)NC(=O)[C@H](C)NC(=O)[C@H](CCCNC(=N)N)NC(=O)[C@H](CCCCN)NC1=O)[C@@H](C)O (stereo partly drawn) [PSM-0226, H-Met-Thr-Ala-Phe-[Cys-Lys-Arg-Ala-Asn-Cys]-Leu-Thr-Asp-Gly-Ser-Ttds-Ttds-Ttds-Lys(Bio)-NH2] (H-[ξM]TAFCKRANCLTDGS-X19; disulfide 5-10)
IC50 [1, 3]: 200 to 1260 nM
